What was measured:
NHFB = test: Cell viability assay (sulforhodamine B); format: cell-based; conditions: Fibroblast; NHFB normal human fibroblasts, 72 h
Protocol: All biological reagents and solvents were obtained from commercial suppliers and used as recommended. The human NSCLC cell line H460 and P-gp-overexpressing drug-resistant cell line H460TaxR were cultured in RPMI-1640 medium supplemented with 10% fetal bovine serum, 100 units/ml penicillin and […] streptomycin. The NHFB cell line NHFB was cultured in DMEM with the same supplements. All cells were maintained in a 37 °C incubator with 95% humidity and 5% CO2.
The cell viability was determined using the sulforhodamine B assay.[64] In brief, cells (4000 cells in 100 μl medium) were seeded in 96-well culture plates and incubated for 24 h. The cells were treated with the compounds or with an equal volume (0.1%) of DMSO for 72 h. The cell viability was calculated using the following formula: cell viability=Atreatment/Acontrol. The EC50 values were determined using the Sigma Plot 10.0 software package (Systat Software Inc., San Jose, CA, USA).

[1] = parallel artificial membrane permeability assay (PAMPA); format: in vitro ADME
Text: (§1) As in vivo investigations are generally time consuming and expensive, it is advantageous to eliminate those compounds that are not suitable for animal experiments. One of the necessary steps is to screen the initial hits using assays testing their possible behaviors in vivo. To evaluate the drug-like properties of TBPT, a panel of in vitro assays was preformed (Table 1). The parallel artificial membrane permeability assay (PAMPA) was used to evaluate the cell permeability of the compounds. Compounds with a Pe >[…] are classified as highly permeable. […] The Caco-2 assay was used to predict the oral absorption values of the compounds in vivo. Compounds with a Caco-2 efflux ratio >2 may be subject to active efflux and should not be developed further. […] The half-life (T1/2) in human liver microsomes is used to predict the metabolism properties of compounds in vivo. […] A very long T1/2 (>24 h) increases the risk of cumulative toxicity and is not desirable. […] T1/2 in plasma indicates the stability of the drug in human blood; the high T1/2 values of these compounds indicated better stability in vivo. Plasma protein binding influences the distribution of drugs into body tissues, and compounds with high plasma protein binding (>99%) are limited in terms of the amount of free compound that are available to act on the targeted tissue. […]

[2] = human liver microsome stability; format: in vitro ADME; conditions: liver microsomes, read-out: T1/2 in human liver microsome (converted)
Text: as §1

P-gp = target: T1, P-gp (Homo sapiens, UniProt P08183); test: P-gp ATPase activity assay; format: biochemical; conditions: compared with DMSO; TBPT 2 μM, 1 h; human cell membrane P-gp fractions
T1 construct: purchased Promega Biotech, Madison, WI, USA
T1 sequence (P08183 whole entry): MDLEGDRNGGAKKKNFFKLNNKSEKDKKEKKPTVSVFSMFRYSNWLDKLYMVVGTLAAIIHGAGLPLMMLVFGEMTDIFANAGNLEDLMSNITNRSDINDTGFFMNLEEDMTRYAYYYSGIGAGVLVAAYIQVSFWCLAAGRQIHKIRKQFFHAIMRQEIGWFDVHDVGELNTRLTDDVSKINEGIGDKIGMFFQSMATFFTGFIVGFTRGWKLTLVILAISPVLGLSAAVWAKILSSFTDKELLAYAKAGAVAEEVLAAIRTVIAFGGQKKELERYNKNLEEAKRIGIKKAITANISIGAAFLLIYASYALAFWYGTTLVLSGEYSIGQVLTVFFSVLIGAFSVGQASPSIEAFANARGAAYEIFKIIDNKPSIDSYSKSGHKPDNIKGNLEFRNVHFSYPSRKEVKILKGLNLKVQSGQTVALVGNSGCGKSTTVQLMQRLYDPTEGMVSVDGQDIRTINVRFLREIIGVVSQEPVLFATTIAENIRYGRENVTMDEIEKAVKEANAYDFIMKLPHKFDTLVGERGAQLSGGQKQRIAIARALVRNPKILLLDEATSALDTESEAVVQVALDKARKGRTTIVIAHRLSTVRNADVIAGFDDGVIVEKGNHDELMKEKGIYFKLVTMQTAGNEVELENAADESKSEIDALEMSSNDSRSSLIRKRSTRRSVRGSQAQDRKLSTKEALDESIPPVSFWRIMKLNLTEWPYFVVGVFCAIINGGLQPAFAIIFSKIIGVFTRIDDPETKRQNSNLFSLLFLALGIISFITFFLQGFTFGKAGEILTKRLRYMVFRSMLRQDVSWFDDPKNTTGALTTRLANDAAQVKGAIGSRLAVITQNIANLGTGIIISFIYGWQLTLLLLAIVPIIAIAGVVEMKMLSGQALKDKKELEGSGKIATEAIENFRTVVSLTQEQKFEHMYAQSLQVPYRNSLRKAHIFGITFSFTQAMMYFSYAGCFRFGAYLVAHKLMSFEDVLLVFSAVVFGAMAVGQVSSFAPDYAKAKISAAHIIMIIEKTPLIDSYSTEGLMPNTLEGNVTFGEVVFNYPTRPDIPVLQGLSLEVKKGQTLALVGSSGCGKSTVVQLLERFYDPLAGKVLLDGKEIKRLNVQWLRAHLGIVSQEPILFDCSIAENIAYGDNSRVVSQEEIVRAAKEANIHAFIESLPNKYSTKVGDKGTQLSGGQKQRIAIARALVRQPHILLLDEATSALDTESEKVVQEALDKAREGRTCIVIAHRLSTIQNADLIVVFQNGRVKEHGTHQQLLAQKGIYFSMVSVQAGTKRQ
Protocol: The P-gp ATPase activity was determined in human cell membrane P-gp fractions using a luminescence-based assay.
The P-gp ATPase activity assay was conducted using the P-gp Glo Assay System following the manufacturer's protocol (Promega Biotech, Madison, WI, USA). […] Then, the luminescence was measured using a POLARstar Galaxy luminometer (BMG Labtech, Offenburg, Germany). The change in luminescence was calculated by comparing the Na3VO4-treated samples with the other compound-treated samples. The change in luminescence change is proportional to the ATP consumption in the samples, which correlated positively with the P-gp ATPase activity.

H460TaxR [3] = test: Apoptosis flow cytometry (PI/Annexin V-FITC); format: cell-based, human; conditions: NSCLC cells (H460TaxR), 2 μM, 48 h
H460TaxR [4] = test: Immunofluorescence staining for microtubule structure; format: cell-based, human; conditions: 2 μM, 24 h
Protocol: (§2) The cells were washed in PBS and then fixed in paraformaldehyde (4% v/v) for 10 min. After the cells were washed three times in PBS, they were blocked with 5% (w/v) BSA for 30 min at RT. Then, α-tubulin antibody (CST, Beverly, MA, USA) was incubated with cells in a humid chamber overnight at 4 °C. After the cells were washed three times in PBS, they were incubated with goat anti-rabbit IgG-FITC (Jackson ImmunoResearch, West Grove, PA, USA) for 1 h at 37 °C. Then, the cells were mounted with mounting medium containing DAPI (Vector Lab, Peterborough, UK) after they were washed three times in PBS. Finally, the cells were observed and imaged using a fluorescence microscope (Olympus IX71, Tokyo, Japan).

H460 = test: as above; format: cell-based, human; conditions: H460, 2 μM, 24 h
Protocol: as §2

NHFB cells = test: Cell cycle and apoptosis analysis; format: cell-based, human; conditions: 2 μM
[5] = target: T2, ABL1(E255K)-phosphorylated (Homo sapiens, UniProt P00519, E255K); test: KINOMEscan; format: binding; conditions: read-out: % Ctrl
T2 construct: purchased DiscoveRx KINOMEscan

[6] = target: T3, ABL1(Y253F)-phosphorylated (Homo sapiens, UniProt P00519, Y253F); test: KINOMEscan; format: binding; conditions: read-out: % Ctrl
T3 construct: purchased DiscoveRx KINOMEscan

FLT3(ITD) = test: KINOMEscan; format: binding, human
Protocol: The binding assay for 442 non-mutant kinases was performed using KINOMEscan (DiscoveRx Corporation, Fremont, CA, USA) as reported previously.[58], [59] TBPT was screened at concentrations of 5 and 10 μM to identify the affected kinases. KINOMEscan is based on a competition reaction that quantitatively measures the ability of a test compound to compete with an active site-directed ligand for binding to the kinase active site. […] After the assay plates were incubated with shaking for 1 h, the liganded beads were washed with washing buffer (1 × PBS and 0.05% Tween 20). Then, the beads were re-suspended in elution buffer (1 × PBS, 0.05% Tween 20, and 0.5 μM ligand) and incubated with shaking for 30 min. The kinase concentration in the eluates was measured via qPCR. The results are represented as ‘%Ctrl', which was calculated using the following formula: (test compound signal–positive control signal)/(DMSO signal–positive control signal) × 100%. A lower % Ctrl indicates stronger binding to the kinase active site.

KIT(A829P) = target: T4, KIT(A829P) (Homo sapiens, UniProt P10721, A829P); test: KINOMEscan; format: binding; conditions: read-out: % Ctrl
T4 construct: purchased DiscoveRx KINOMEscan
T4 sequence (P10721 26-976 A829P): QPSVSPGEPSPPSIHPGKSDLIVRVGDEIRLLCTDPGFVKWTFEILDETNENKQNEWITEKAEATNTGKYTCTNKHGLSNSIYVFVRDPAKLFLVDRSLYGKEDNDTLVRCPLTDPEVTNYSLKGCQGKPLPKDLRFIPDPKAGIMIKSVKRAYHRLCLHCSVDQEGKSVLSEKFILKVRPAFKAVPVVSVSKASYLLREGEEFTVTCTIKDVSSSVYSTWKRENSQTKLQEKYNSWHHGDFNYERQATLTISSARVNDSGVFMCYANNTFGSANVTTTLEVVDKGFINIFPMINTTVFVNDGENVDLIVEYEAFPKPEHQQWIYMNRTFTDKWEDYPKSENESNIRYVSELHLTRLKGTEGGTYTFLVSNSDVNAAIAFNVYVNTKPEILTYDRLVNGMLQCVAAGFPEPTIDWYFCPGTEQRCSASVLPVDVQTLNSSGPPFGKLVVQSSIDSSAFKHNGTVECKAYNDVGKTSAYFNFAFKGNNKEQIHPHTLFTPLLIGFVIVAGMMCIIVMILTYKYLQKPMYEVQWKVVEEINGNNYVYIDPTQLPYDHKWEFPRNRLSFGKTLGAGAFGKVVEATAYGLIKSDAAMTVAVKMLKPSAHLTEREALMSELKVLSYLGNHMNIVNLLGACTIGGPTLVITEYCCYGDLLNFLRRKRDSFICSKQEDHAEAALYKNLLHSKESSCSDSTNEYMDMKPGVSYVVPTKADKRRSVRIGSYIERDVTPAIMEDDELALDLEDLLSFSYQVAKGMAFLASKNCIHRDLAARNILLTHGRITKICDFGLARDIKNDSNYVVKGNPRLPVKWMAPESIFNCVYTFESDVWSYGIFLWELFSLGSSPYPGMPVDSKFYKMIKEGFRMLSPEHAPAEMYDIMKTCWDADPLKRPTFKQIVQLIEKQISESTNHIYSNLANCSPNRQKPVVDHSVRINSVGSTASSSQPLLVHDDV

KIT(L576P) = target: T5, KIT(L576P) (Homo sapiens, UniProt P10721, L576P); test: KINOMEscan; format: binding; conditions: read-out: % Ctrl
T5 construct: purchased DiscoveRx KINOMEscan
T5 sequence (P10721 26-976 L576P): as the sequence (P10721 26-976 A829P) above, with L551P, P804A counted along it

KIT(V559D) = target: T6, KIT(V559D) (Homo sapiens, UniProt P10721, V559D); test: KINOMEscan; format: binding; conditions: read-out: % Ctrl
T6 construct: purchased DiscoveRx KINOMEscan
T6 sequence (P10721 26-976 V559D): as the sequence (P10721 26-976 A829P) above, with V534D, P804A counted along it

RET(V804L) = target: T7, RET(V804L) (Homo sapiens, UniProt P07949, V804L); test: KINOMEscan; format: binding; conditions: read-out: % Ctrl
T7 construct: purchased DiscoveRx KINOMEscan
T7 sequence (P07949 29-1114 V804L): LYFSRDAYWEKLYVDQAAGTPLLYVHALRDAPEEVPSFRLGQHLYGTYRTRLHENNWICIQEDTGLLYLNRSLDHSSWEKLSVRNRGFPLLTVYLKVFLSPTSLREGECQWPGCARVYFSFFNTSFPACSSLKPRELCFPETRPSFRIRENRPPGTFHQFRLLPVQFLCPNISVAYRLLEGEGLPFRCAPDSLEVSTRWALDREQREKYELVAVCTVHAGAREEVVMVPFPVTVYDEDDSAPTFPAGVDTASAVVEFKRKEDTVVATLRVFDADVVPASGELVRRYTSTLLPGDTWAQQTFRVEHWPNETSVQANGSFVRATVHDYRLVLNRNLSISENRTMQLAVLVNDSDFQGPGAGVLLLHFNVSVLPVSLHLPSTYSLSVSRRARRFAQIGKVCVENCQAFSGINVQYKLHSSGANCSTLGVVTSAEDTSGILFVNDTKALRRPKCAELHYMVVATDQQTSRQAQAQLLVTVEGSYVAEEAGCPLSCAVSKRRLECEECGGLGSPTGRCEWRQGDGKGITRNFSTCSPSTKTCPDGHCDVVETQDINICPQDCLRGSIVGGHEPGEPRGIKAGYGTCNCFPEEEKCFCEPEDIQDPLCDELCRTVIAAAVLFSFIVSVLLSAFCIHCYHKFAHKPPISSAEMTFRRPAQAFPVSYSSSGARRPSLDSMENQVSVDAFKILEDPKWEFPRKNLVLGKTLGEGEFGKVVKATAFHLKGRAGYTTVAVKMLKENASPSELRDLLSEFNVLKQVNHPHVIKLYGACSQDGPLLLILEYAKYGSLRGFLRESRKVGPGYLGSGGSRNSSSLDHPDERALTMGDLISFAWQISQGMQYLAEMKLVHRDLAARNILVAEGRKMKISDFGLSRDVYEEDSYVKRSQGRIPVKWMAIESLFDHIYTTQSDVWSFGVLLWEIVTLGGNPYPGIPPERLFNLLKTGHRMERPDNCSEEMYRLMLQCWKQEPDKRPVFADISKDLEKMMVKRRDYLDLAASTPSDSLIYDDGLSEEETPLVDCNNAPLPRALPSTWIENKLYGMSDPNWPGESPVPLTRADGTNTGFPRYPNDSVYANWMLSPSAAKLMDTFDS

[7] = mouse, in vivo
Protocol: Five injections of vehicle and TBPT (30 or 60 mg/kg) were administered intravenously at days 1, 3, 5, 7 and 9 (arrows). Four injections of PTX (10 mg/kg) were administered intravenously at days 1, 3, 5 and 7. (a) The tumor volume was measured every other day. When the tumor volume in the solvent-treated group exceeded 1500 mm^3, the experiment was terminated. (b) Blood biochemical and hematological analyses. (c) The body weights of the mice were monitored every other day during the experiments. *P<0.05, Student's t-test with day 0, N=5
Figure 3 Histopathological examination of the major organs from TBPT or PTX-treated mouse tumor at the end of the experiments. The cross-sections of organs were stained with hematoxylin–eosin. […] The scale bars represent 50 μm and are uniform in each column
H460 and H460TaxR cells (5 × 10^6 cells in 100 μl PBS) were injected subcutaneously into the dorsal flank of each mouse. When the tumors reached volumes of 100 mm^3, the mice were divided randomly into four groups. The mice were treated every other day five times with intravenous injections of (1) vehicle (the solvent of TBPT: 60% PBS, 8% Cremophor EL, 8% EtOH, 12% poly propylene glycol and 12% PEG-400), (2) TBPT (30 mg/kg) or (3) TBPT (60 mg/kg). Another group was treated with PTX (10 mg/kg) every other day four times as the positive control. The tumor dimensions and body weights were measured every other day. The tumor volume was calculated according to a standard formula: volume=width^2 × length/2. The experiment was terminated and the mice were killed when the tumor volumes in the solvent-treated group exceeded 1500 mm^3. The mouse organs and blood were collected and used for hematoxylin–eosin staining and serum chemistry assay. TGI rates were assessed using the following formula: TGI=1− (Tt−T0)/(Ct−C0) × 100%. Tt and T0 indicate the tumor volumes of the treated group at days t and 0. Ct and C0 indicate the tumor volumes of the control group at days t and 0, respectively.

## Cc1ccc(C2=Nc3cccnc3S(=O)(=O)c3ccccc32)cc1 [TBPT, 6-(p-tolyl)benzo[f] pyrido[2,3-b][1,4] thiazepine 11,11-dioxide]
NHFB
  EC50: > 100 µM
[1]
  PAMPA Pe: 1081.1±30.2 10^−6cm/s
[2]
  half-life: 5.18 ± 0.69 h
P-gp
  P-gp ATPase activity: did not induce P-gp ATPase activity
H460TaxR [3]
  cells in an apoptotic/necrotic state: approximately 50%
H460TaxR [4]
  microtubule organization in live cells: disordered microtubule fragments
H460
  microtubule organization in live cells: disordered microtubule fragments
NHFB cells
  cell cycle arrest or apoptosis: very little cell cycle arrest or apoptosis
[5]; 5 μM
  remaining binding at 5 µM: 60%
[5]; 10 μM
  remaining binding at 10 µM: 89%
[6]; 5 μM
  remaining binding at 5 µM: 70%
[6]; 10 μM
  remaining binding at 10 µM: 95%
FLT3(ITD); 5 μM
  % Ctrl: 95%
FLT3(ITD); 10 μM
  % Ctrl: 100%
KIT(A829P); 5 μM
  remaining binding at 5 µM: 95%
KIT(A829P); 10 μM
  remaining binding at 10 µM: 96%
KIT(L576P); 5 μM
  remaining binding at 5 µM: 78%
KIT(L576P); 10 μM
  remaining binding at 10 µM: 100%
KIT(V559D); 5 μM
  remaining binding at 5 µM: 72%
KIT(V559D); 10 μM
  remaining binding at 10 µM: 91%
RET(V804L); 5 μM
  remaining binding at 5 µM: 100%
RET(V804L); 10 μM
  remaining binding at 10 µM: 86%
[7]
  histopathological examination of the major organs: No pathological changes were observed
